# Several values for one entry are separate records, joined by “and”; a condition that tells them apart may be missing. Equal entries are not always repeated. Where two headings read alike, the source gives them in different places.
# What was measured:
# [1] = tested on: maltoporin (LamB); parameters: method as in PMID 11415317; conditions: cited from earlier work
# [2] = tested on: CymA; parameters: method as in PMID 10455198; conditions: cited from earlier work
# [3] = tested on: ScrY; parameters: method as in PMID 9691119; conditions: cited from earlier work
# [4] = biological target: N-terminally truncated VhChiP (lacking the N-plug) (Vibrio campbellii (formerly Vibrio harveyi) ATCC BAA-1116); experiment: crystal structure; truncated VhChiP, ligand-free (C121, a single trimer per asymmetric unit) and cocrystallised with chitohexaose (P1, two trimers per asymmetric unit)
# [5] = biological target: T1, truncated VhChiP (Vibrio campbellii, UniProt L0RVU0); experiment: Single-channel BLM recordings, chitohexaose titration of truncated VhChiP (without or with N-plug peptide); format: binding; conditions: for K (equilibrium binding constant) / koff / kon: truncated
# Protocol: Single-channel analysis using the BLM reconstitution technique was performed as described previously ([13], [34], [35]). The lipid bilayer cuvette consisted of a 25-μm thick Teflon film sandwiched between two chambers. […] The chambers were filled with electrolyte solution and Ag/AgCl electrodes immersed on either side of the Teflon film. The electrolyte used was 1 M KCl buffered with 20 mM Hepes, pH 7.4. 1,2-diphytanoyl-sn-glycero-3-phosphatidylcholine (Avanti Polar Lipids) was used for lipid bilayer formation. To form the bilayer, the aperture was first prepainted with 1 μl of 1% (v/v) hexadecane in pentane (Sigma-Aldrich). One of the electrodes was used as the ground (cis), while the other electrode (trans) was connected to the head-stage of an Axopatch 200B amplifier (Axon Instruments). VhChiP (20–100 ng μL^−1) was added to the solution on the cis side of the lipid membrane. At applied transmembrane potentials of ±100 mV, a single channel was frequently inserted within a few minutes. The protein solution in the chamber was then gently diluted by multiple additions of the working electrolyte, to prevent multiple insertions. Single-channel current measurements were performed in the voltage-clamp mode, with the internal filter set at 10 kHz. Amplitude, probability, and single-channel analyses were performed using pClamp v.10.5 software (https://www.moleculardevices.com/products/axon-patch-clamp-system/acquisition-and-analysis-software/pclamp-software-suite) (all from Molecular Devices). […] Occlusions of ion flow caused by sugar diffusion through the inserting channel were usually recorded for 2 min. To determine the kinetics of sugar translocation on individual subunit blockages, discrete concentrations of chitohexaose (0, 0.25, 0.5, and 1.0 μM) was tested. To study channel blocking behaviors of the N-plug, the first nine amino acids (Asp^1-Lys^9) (the so-called N-plug peptide) that plugged the channel was synthesized (GenScript). Two concentrations of the peptide (10 and 40 μM) were added to either the cis or the trans side of the chamber, containing with or without 1 μM of chitohexaose on the cis side.
# (§1) The equilibrium binding constant K (M^-1) was estimated from the decrease in the ion conductance in the presence of increasing concentrations of sugar using the following equation ([36]):(1) Gmax−Gc/Gmax=Imax−Ic/Imax=K[C]/(K[C]+1)
# (§2) Gmax is the average conductance of the fully open VhChiP channel, and Gc is the average conductance at a given concentration [c] of chitohexaose. Imax is the initial current through the fully open channel in the absence of sugar, and Ic is the current at a particular sugar concentration. The titration experiments were also analyzed using double reciprocal plots.
# [6] = biological target: T1, truncated VhChiP; experiment: ITC, chitohexaose into truncated VhChiP; format: binding; conditions: 25 °C
# Protocol: (§3) ITC experiments were carried out at least three times using the MicroCal PEAQ-ITC (Malvern Instruments Ltd) at 25 ± 1 °C with a stirring speed of 500 rpm. For titration experiments, 40 μl of chitohexaose or the N-plug was titrated from a syringe into the 300 μl-calorimeter cells containing 0.05% (v/v) LDAO, 20 mM sodium phosphate buffer, pH 7.5, and protein solution. Injections (2 μl per injection) were repeated 19 times over 150-s intervals. The background was measured by injecting the corresponding ligand into the cell containing only the buffer. The ITC data were collected and analyzed using the MicroCal PEAQ-ITC analysis software (https://www.malvernpanalytical.com/en/support/product-support/software/microcal-peaq-itc-analysis-software-v141). The ITC profile obtained by injecting the corresponding ligand into the reaction cell containing buffer without VhChiP was subtracted from the […] dataset. The resultant data were fitted by a single-site binding model with the nonlinear least square algorithm.
# [7] = biological target: T2, WT VhChiP (Vibrio campbellii, UniProt L0RVU0); experiment: ITC, chitohexaose into WT VhChiP; format: binding; conditions: 25 °C
# T2 sequence (L0RVU0 26-375): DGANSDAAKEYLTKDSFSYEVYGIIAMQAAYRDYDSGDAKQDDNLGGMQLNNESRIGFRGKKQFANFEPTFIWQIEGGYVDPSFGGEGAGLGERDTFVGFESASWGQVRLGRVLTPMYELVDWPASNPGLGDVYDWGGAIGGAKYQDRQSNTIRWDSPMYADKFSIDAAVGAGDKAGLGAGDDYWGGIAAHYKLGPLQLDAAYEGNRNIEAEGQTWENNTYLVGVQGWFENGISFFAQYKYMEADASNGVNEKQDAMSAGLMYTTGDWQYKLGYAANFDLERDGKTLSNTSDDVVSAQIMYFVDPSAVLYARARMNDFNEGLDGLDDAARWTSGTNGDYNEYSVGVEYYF
# Protocol: as §3
# [8] = biological target: N-plug peptide (Vibrio campbellii, UniProt L0RVU0); experiment: ITC, chitohexaose into synthesized N-plug peptide; format: binding; conditions: 25 °C
# Protocol: as §3
# [9] = biological target: T3, VhChiP D1A mutant (Vibrio campbellii, UniProt L0RVU0, D26A); experiment: Single-channel BLM recordings, chitohexaose titration of D1A mutant; format: binding; conditions: sugar on cis side
# T3 sequence (L0RVU0 26-375 D26A): T2 sequence (L0RVU0 26-375)
# Protocol: Single-channel analysis using the BLM reconstitution technique was performed as described previously ([13], [34], [35]). The lipid bilayer cuvette consisted of a 25-μm thick Teflon film sandwiched between two chambers. […] The chambers were filled with electrolyte solution and Ag/AgCl electrodes immersed on either side of the Teflon film. The electrolyte used was 1 M KCl buffered with 20 mM Hepes, pH 7.4. 1,2-diphytanoyl-sn-glycero-3-phosphatidylcholine (Avanti Polar Lipids) was used for lipid bilayer formation. To form the bilayer, the aperture was first prepainted with 1 μl of 1% (v/v) hexadecane in pentane (Sigma-Aldrich). One of the electrodes was used as the ground (cis), while the other electrode (trans) was connected to the head-stage of an Axopatch 200B amplifier (Axon Instruments). VhChiP (20–100 ng μL^−1) was added to the solution on the cis side of the lipid membrane. At applied transmembrane potentials of ±100 mV, a single channel was frequently inserted within a few minutes. […] Occlusions of ion flow caused by sugar diffusion through the inserting channel were usually recorded for 2 min. […]
# Gmax is the average conductance of the fully open VhChiP channel, and Gc is the average conductance at a given concentration [c] of chitohexaose. […] The titration experiments were also analyzed using double reciprocal plots.
# [10] = biological target: T3, VhChiP D1A mutant; experiment: ITC, chitohexaose into D1A mutant; format: binding; conditions: 25 °C
# Protocol: as §3
# [11] = biological target: T2, WT VhChiP; experiment: Single-channel BLM recordings, chitohexaose titration of WT VhChiP; format: binding; conditions: no N-plug peptide
# Protocol: Single-channel analysis using the BLM reconstitution technique was performed as described previously ([13], [34], [35]). The lipid bilayer cuvette consisted of a 25-μm thick Teflon film sandwiched between two chambers. […] The chambers were filled with electrolyte solution and Ag/AgCl electrodes immersed on either side of the Teflon film. The electrolyte used was 1 M KCl buffered with 20 mM Hepes, pH 7.4. 1,2-diphytanoyl-sn-glycero-3-phosphatidylcholine (Avanti Polar Lipids) was used for lipid bilayer formation. To form the bilayer, the aperture was first prepainted with 1 μl of 1% (v/v) hexadecane in pentane (Sigma-Aldrich). One of the electrodes was used as the ground (cis), while the other electrode (trans) was connected to the head-stage of an Axopatch 200B amplifier (Axon Instruments). VhChiP (20–100 ng μL^−1) was added to the solution on the cis side of the lipid membrane. At applied transmembrane potentials of ±100 mV, a single channel was frequently inserted within a few minutes. The protein solution in the chamber was then gently diluted by multiple additions of the working electrolyte, to prevent multiple insertions. Single-channel current measurements were performed in the voltage-clamp mode, with the internal filter set at 10 kHz. Amplitude, probability, and single-channel analyses were performed using pClamp v.10.5 software (https://www.moleculardevices.com/products/axon-patch-clamp-system/acquisition-and-analysis-software/pclamp-software-suite) (all from Molecular Devices). To investigate sugar translocation, chitooligosaccharide was added to the cis side of the chamber at a final concentration of 5 μM. Occlusions of ion flow caused by sugar diffusion through the inserting channel were usually recorded for 2 min. To determine the kinetics of sugar translocation on individual subunit blockages, discrete concentrations of chitohexaose (0, 0.25, 0.5, and 1.0 μM) was tested. To study channel blocking behaviors of the N-plug, the first nine amino acids (Asp^1-Lys^9) (the so-called N-plug peptide) that plugged the channel was synthesized (GenScript). Two concentrations of the peptide (10 and 40 μM) were added to either the cis or the trans side of the chamber, containing with or without 1 μM of chitohexaose on the cis side.
# as §1, §2
# [12] = tested on: EcChiP; experiment: Literature single-channel analysis, EcChiP; format: binding, E. coli; conditions: same sugar
# [13] = biological target: truncated VhChiP mixed with the N-plug peptide (Vibrio campbellii, UniProt L0RVU0); experiment: ITC, chitohexaose into truncated VhChiP mixed with N-plug peptide; format: binding; conditions: 25 °C, protein 20 μM, N-plug 5 μM
# Protocol: as §3
# [14] = tested on: EcChiP; parameters: method as in PMID 27226611, PMID 28972167; conditions: single-channel analysis; cited from earlier work
# [15] = sugar on cis side, N-plug peptide on trans side
# [16] = sugar on cis side, no N-plug peptide
# [17] = sugar on trans side, no N-plug peptide
compound,measurement,setting,value
maltohexaose,binding constant (K),[1],"13,600 M^−1"
cyclodextrin,binding constant (K),[2],"31,300 M^−1"
OC[C@H]1O[C@@](CO)(O[C@H]2O[C@H](CO)[C@@H](O)[C@H](O)[C@H]2O)[C@@H](O)[C@@H]1O [sucrose],binding constant (K),[3],80 M⁻¹
N-terminally truncated VhChiP (lacking the N-plug) (domain or fragment),stoichiometry N,[4],3
"N-plug peptide: synthesized peptide corresponding to the first nine residues (DGANSDAAK, Asp1-Lys9) of VhChiP",channel blocking events,"[5]; truncated channel, no sugar, peptide at 10 and 40 μM on trans side, +100 mV, 1 M KCl, 20 mM Hepes pH 7.4",rare and short-lived blocking events
CC(=O)NC1C(O)OC(CO)C(OC2OC(CO)C(OC3OC(CO)C(OC4OC(CO)C(OC5OC(CO)C(OC6OC(CO)C(O)C(O)C6NC(C)=O)C(O)C5NC(C)=O)C(O)C4NC(C)=O)C(O)C3NC(C)=O)C(O)C2NC(C)=O)C1O (stereo not drawn) [chitohexaose],"n (site), stoichiometry",[6],2.8 ± 0.1
same,Kd,[6]; one-site binding fit,10 ± 0.3 µM
same,"n (site), stoichiometry",[7],3.2 ± 0.1
same,Kd,[7]; one-site binding fit,0.3 ± 0.06 µM
same,Kd,"[8]; N-plug 500 μM, no protein",2600 ± 120 µM
same,"n (site), stoichiometry",[8]; N-plug peptide alone,1.0 ± 0.02
same,K of D1A mutant less than WT channel,[9],2.5 fold
same,Kd,[10],1.2 ± 0.2 µM
same,"n (site), stoichiometry",[10],3.0 ± 0.1
same,K (equilibrium binding constant),"[11]; WT, sugar on cis side","250,000 M^−1"
same,koff,"[11]; WT, sugar on cis side",270 ± 400 s⁻¹
same,τc (average residence time),"[11]; WT, sugar on cis side",3.7 ± 0.3 ms and 3.7 ± 0.4 ms
same,kon,"[11]; WT, sugar on cis side, 1 M KCl, 20 mM Hepes pH 7.4, +100 mV",68 ± 1.4 × 10^6 M^−1s^−1
same,K (equilibrium binding constant),"[11]; WT, sugar on trans side","240,000 M^−1"
same,koff,"[11]; WT, sugar on trans side, read-out: koff",210 ± 500 s⁻¹
same,kon,"[11]; WT, sugar on trans side, read-out: kon",5e+07 ± 1.2e+06 M⁻¹ s⁻¹
same,kon,"[11]; pH 7.4, WT, sugar on cis side, 1 M KCl, 20 mM Hepes pH 7.4, +100 mV",5.6e+07 ± 1e+07 M⁻¹ s⁻¹
same,K of EcChiP less than that of VhChiP,[12],about 10 fold
same,"reduction in the binding affinity, truncated vs WT",[5]; from Table 2,22.3 fold
same,K (equilibrium binding constant),"[5]; sugar on cis side, N-plug peptide on cis side",incalculable
same,K (equilibrium binding constant),[5]; [15],"255,000 M^−1"
same,koff,[5]; [15],220 ± 10 s⁻¹
same,kon,[5]; [15],5.6e+07 ± 100000 M⁻¹ s⁻¹
same,K (equilibrium binding constant),[5]; [16],"11,000 M^−1"
same,koff,[5]; [16],500 ± 100 s⁻¹
same,K (equilibrium binding constant),[5]; [17],"23,000 M^−1"
same,koff,[5]; [17],300 ± 100 s⁻¹
same,kon,[5]; [17],6.8e+06 ± 500000 M⁻¹ s⁻¹
same,Kd,[13],2.9 ± 0.07 µM
same,"n (site), stoichiometry",[13],2.3 ± 0.2
same,K value,[14],"50,000 M^−1"
